# Data as given in patent US20110015120A1, “Pharmaceutical and cosmetic compositions including lactoferrin, ciclopirox, etidronic acid” (VALETUDO S . r . l ., priority 2009, published 2011).
# “And” between values parts separate entries of the source, which are not always exact repeats. Identical values can stand only once. “Also recorded” adds a separate entry of the source.
# Tested on: MALASSEZIA GLOBOSA
# Experiment: Inhibition of Malassezia globosa growth, colony count (UFC/ml) on Dixon's Agar
# Type: cell-based
# Details: for dil 10X colony count: 200 μl of suspension diluted 10X on Petri dish; for dil 10X colony count / X50 (calculation made based on the dilution): three replicates; for AVERAGE: average of three replicates; for % reduction of Malassezia globosa cells growth (% increase of antimycotic activity): compared to CICLOPIROXOLAMINE alone; for X50 (calculation made based on the dilution): dil 10X count x50
# Method: To assess the capacity of the LACTOFERRIN to enhance the antimycotic action of the CIPROPIROXOLAMIN, a suspension of a MALASSEZIA GLOBOSA STRAIN is inoculated on a specific culture medium and the capacity of the compounds to inhibit the mycotic growth is observed, by counting of the UFC/ml.
# As first approach, the two compounds are tested at the concentration of 1:500 and, subsequently, diluted in culture medium at 2 decreasing concentrations (10× and 100×) in order to visualize the individual activities. Then in order to evaluate the capacity of the LACTOFERRIN to increase the antimycotic effect of the CICLOPIROXOLAMIN, the same test was carried out on the mix of the two active ingredients at different ratios (1:2 and 1:5).
# Each test was performed three times and the incubation times were 1 and 4 hours respectively.
# Based on the results obtained, the best dilution for the execution of the tests was the 10× dilution and both the incubation times (1 hour and 4 hours) were taken into consideration since the experimental conditions permitted an accurate count to be carried out of the colonies on the Petri dishes.
# The microorganism used is MALASSEZIA GLOBOSA.
# The microorganisms were cultured in specific culture medium (Dixon's Agar) until reaching a concentration of approximately […] per ml. Aliquots of 1 ml of this inoculum were then taken to which were added respectively: • Ciclopiroxolamine 1:500 • Lactoferrin 1:500 • Mixture 1:2 Ciclopiroxolamine:lactoferrin • Mixture 1:5 Ciclopiroxolamine:lactoferrin
# As positive control, the untreated inoculum was used (MALASSEZIA and diluting liquid), as negative controls the two active ingredients in diluting liquid.
# After incubations of 1 hour and 4 hours respectively, aliquots of 200 μl of each suspension were spread on Petri dishes.
# For each treatment, the test was carried out three times and for 3 different dilutions (non diluted suspension (TQ), dilution 10× and dilution 100×).
# The 54 dishes obtained were then examined, after incubation of 5-6 days and the microbial load of each specimen was calculated (UFC/ml).
# The % increase of the antimycotic property corresponds to the % reduction of the growth of Malassezia Globosa
compound,measurement,setting,value
"Cc1cc(C2CCCCC2)n(O)c(=O)c1 [CICLOPIROXOLAMINE, Ciclopirox Olamine]",reduction in the growth of Malassezia Globosa (in words),after four hours of incubation,marked reduction
same,reduction in the growth of Malassezia Globosa (in words),after one hour of incubation,marked reduction
same,antimycotic activity towards Malassezia Globosa (in words),overall statement,decidedly more effective in reducing the growth compared to the LACTOFERRIN; also recorded: marked antimycotic activity
same,Log (AVERAGE),period of incubation 1 hour,3.985
same,dil 10X colony count,period of incubation 1 hour,208 and 170 and 202
same,AVERAGE,period of incubation 1 hour,9666.667 UFC/ml
same,% reduction of Malassezia globosa cells growth (% increase of antimycotic activity),period of incubation 1 hour,0%
same,X50 (calculation made based on the dilution),period of incubation 1 hour,10400 UFC/ml and 8500 UFC/ml and 10100 UFC/ml
same,Log (AVERAGE),period of incubation 4 hour,3.209
same,dil 10X colony count,period of incubation 4 hour,38 and 34 and 25
same,AVERAGE,period of incubation 4 hour,1616.667 UFC/ml
same,% reduction of Malassezia globosa cells growth (% increase of antimycotic activity),period of incubation 4 hour,0%
same,X50 (calculation made based on the dilution),period of incubation 4 hour,1900 UFC/ml and 1700 UFC/ml and 1250 UFC/ml
